# Experimental data taken from publication PMC10674446, “Synthesis and Structural Characterization of Novel Dimers of Dipyridothiazine as Promising Antiproliferative Agents” (Molecules, 2023).
# Like-named read-outs stand apart in the source and are kept apart here.
# Key:
# MCF7 breast cancer = assay: MTT cell viability assay, MCF7; format: cell-based, human; conditions: for Selectivity Index (SI), MCF-7: SI = IC50 L6 / IC50 MCF-7; for IC50: Homo sapiens, MCF7, mean ± SD, n = 3, read-out: Anticancer Activity IC50, MCF-7
# Method: (§1) MCF7, SW480 and normal L6 muscle cells were bought from the ATCC company, USA [34]. MCF7 and SW480 adenocarcinoma cell lines were cultured, respectively, using Dulbecco’s Modified Eagle Medium (DMEM with 4.5 g/L glucose; HIMEDIA, Mumbai, India) supplemented with 100 U/mL penicillin, 100 µg/mL of streptomycin and 10% fetal bovine serum (FBS; Cat No. FBSEU500; Tico Europe, Amstelveen, The Netherlands) under standard conditions until the desired confluency was reached. Once the desired cell confluency of 70–80% was observed, the cells were sub-cultured through trypsinization, and the cell count was calculated prior to seeding in the 96-well microplate. Similarly, L6 rat myoblasts were cultured accordingly as normal cell lines to compare against MCF7 and SW480 cell lines during the MTT cell viability assay.
# (§2) Cells were seeded in a 96-well microplate at a density of 1 × 10^4 cells per well and were allowed to adhere to the wells overnight. […] The cells were exposed to the tested substances at concentrations ranging from 50, 25, 10, 5 and 1 μM. The treatment was conducted over three periods of 24 h, 48 h and 72 h, respectively. […] Lastly, the spent MTT medium was removed and DMSO was added to the wells, where the purple formazan crystals were solubilized, and the intensity of the purple hue was spectrophotometrically measured at 570 nm.
# (§3) All values were represented as means ± standard deviations (n = 3). […] The IC50 values were further subjected to one-way ANOVA analysis along with the post hoc test to determine the statistical significance between the treatment groups and the negative control (untreated cells).
# normal L6 rat myoblasts = assay: MTT cell viability assay, normal L6 cells; format: cell-based; conditions: Rattus norvegicus, Myoblast, mean ± SD, n = 3, read-out: Anticancer Activity IC50, L6
# Method: as §1
# (§4) Cells were seeded in a 96-well microplate at a density of 1 × 10^4 cells per well and were allowed to adhere to the wells overnight. Subsequently, the cells were treated with varying concentrations of 12 compounds (1a,b,c–4a,b,c) along with doxorubicin as the positive control. The cells were exposed to the tested substances at concentrations ranging from 50, 25, 10, 5 and 1 μM. The treatment was conducted over three periods of 24 h, 48 h and 72 h, respectively. After the treatment period, thiazolyl blue tetrazolium bromide (MTT) solution was added to each well at a concentration of 0.5 mg/mL and incubated for 3 h in a 37 °C incubator supplemented with 5% CO2. Lastly, the spent MTT medium was removed and DMSO was added to the wells, where the purple formazan crystals were solubilized, and the intensity of the purple hue was spectrophotometrically measured at 570 nm.
# (§5) All values were represented as means ± standard deviations (n = 3). The data were statistically analyzed using GraphPad Prism 10.1.0, where the IC50 values of each compound treated on different cell lines at different time points were obtained by extrapolating the logarithmic dose–response curve. The IC50 values were further subjected to one-way ANOVA analysis along with the post hoc test to determine the statistical significance between the treatment groups and the negative control (untreated cells).
# SW480 colon cancer = assay: MTT cell viability assay, SW480; format: cell-based, human; conditions: for Selectivity Index (SI), SW480: SI = IC50 L6 / IC50 SW480; for IC50: Homo sapiens, SW480, mean ± SD, n = 3, read-out: Anticancer Activity IC50, SW480
# Method: as §1, §2, §3
# [1] = test system: MCF7 and SW480 cancer cells; assay: MTT cell viability assay, both cancer cell lines; format: cell-based, human; conditions: for toxicity towards both MCF7 and SW480 cancer cells (in words): 24, 48 and 72 h of incubation; for IC50: Homo sapiens, MCF7 and SW480, span over 24, 48 and 72 h, read-out: IC50 range towards both cancer cell lines; for cytotoxicity towards MCF7 compared with SW480 (in words): breast cancer cell line MCF7 versus colon cancer cell line SW480
# Method: as §1, §4, §5
# [2] = 72 h treatment period, NA = IC50 beyond the tested concentration range (1-50 µM)
SMILES,melting point [°C],"Selectivity Index (SI), MCF-7 (MCF7 breast cancer; 24 h)","Selectivity Index (SI), MCF-7 (MCF7 breast cancer; 48 h)","Selectivity Index (SI), MCF-7 (MCF7 breast cancer; 72 h)",IC50 (MCF7 breast cancer; 24 h treatment period) [µM],IC50 (MCF7 breast cancer; 48 h treatment period) [µM],IC50 (MCF7 breast cancer; [2]) [µM],IC50 (normal L6 rat myoblasts; 24 h treatment period) [µM],IC50 (normal L6 rat myoblasts; 48 h treatment period) [µM],IC50 (normal L6 rat myoblasts; 72 h treatment period) [µM],"Selectivity Index (SI), SW480 (SW480 colon cancer; 24 h)","Selectivity Index (SI), SW480 (SW480 colon cancer; 48 h)","Selectivity Index (SI), SW480 (SW480 colon cancer; 72 h)",IC50 (SW480 colon cancer; 24 h treatment period) [µM],IC50 (SW480 colon cancer; 48 h treatment period) [µM],IC50 (SW480 colon cancer; 72 h treatment period) [µM],toxicity towards both MCF7 and SW480 cancer cells (in words) [1],IC50 [1] [µM],cytotoxicity towards MCF7 compared with SW480 (in words) [1]
"c1cc(CN2c3cccnc3Sc3cccnc32)nc(CN2c3cccnc3Sc3cccnc32)c1 [1c, 2,6-bis((dipyrido[2,3-b:2′,3′-e][1,4]thiazin-10-yl)methyl)pyridine]",245 to 247,2.25,3.56,5.5,5 ± 1.29,0.75 ± 1.85,1.14 ± 0.51,11.3 ± 0.99,2.67 ± 2.13,6.82 ± 1.24,16.5,0.67,1.5,0.67,3.97 ± 1.27,4.27 ± 0.19,significantly toxic,0.67 to 5,
"c1cc(CN2c3cnccc3Sc3cccnc32)nc(CN2c3cnccc3Sc3cccnc32)c1 [2c, 2,6-bis((dipyrido[3,2-b:3′,4′-e][1,4]thiazin-10-yl)methyl)pyridine]",266 to 268,0.76,1.91,1.80,23.2 ± 0.33,10.02 ± 0.05,9.96 ± 0.03,17.6 ± 0.85,19.23 ± 0.13,18 ± 0.18,1.02,0.91,1.12,17.2 ± 1.46,21.1 ± 0.99,15.9 ± 1.48,,,higher cytotoxicity
"c1ccc(CN2c3ccncc3Sc3ccncc32)c(CN2c3ccncc3Sc3ccncc32)c1 [3a, 1,2-bis((dipyrido[3,4-b:3′,4′-e][1,4]thiazin-10-yl)methyl)benzene]",280 to 282,6.46,6.85,3.51,4.77 ± 0.84,3.17 ± 0.13,6.1 ± 1.33,30.8 ± 0.47,21.7 ± 0.48,21.41 ± 0.17,5.02,5.22,4.69,6.12 ± 0.21,4.16 ± 0.08,4.56 ± 1.18,significantly toxic,3.17 to 6.12,
"c1ccc(CN2c3cnccc3Sc3cccnc32)c(CN2c3cnccc3Sc3cccnc32)c1 [2a, 1,2-bis((dipyrido[3,2-b:3′,4′-e][1,4]thiazin-10-yl)methyl)benzene]",260 to 261,3.5,1.83,1.59,6.27 ± 0.95,9.65 ± 0.63,8.16 ± 0.97,22.1 ± 1.42,17.7 ± 0.27,13 ± 1.32,2.32,2.03,1.75,9.68 ± 0.17,8.74 ± 0.03,7.433 ± 0.02,significantly toxic,6.27 to 9.68,
"c1ccc(CN2c3cccnc3Sc3cccnc32)c(CN2c3cccnc3Sc3cccnc32)c1 [1a, 1,2-bis((dipyrido[2,3-b:2′,3′-e][1,4]thiazin-10-yl)methyl)benzene]",265 to 267,2.62,2.69,2.15,7.85 ± 1.67,7.12 ± 0.42,7.49 ± 1.13,20.6 ± 0.29,19.1 ± 1.08,16.1 ± 0.42,0.94,0.93,0.92,21.8 ± 0.36,20.5 ± 0.79,17.5 ± 0.5,,,higher cytotoxicity
